Laboratory results taken from patent publication US5405859A (priority 1993, dated 1995).
≈ marks a conversion by molar mass, not a printed value. Read-outs that look alike come from different tables or passages of the source.

How the values were obtained:
[1] = Initial screening, relative activities of the patellazoles
[2] = test system: SK-MES1 cells; assay: Cancer cell screen (NCI protocol), SK-MES1; details: Homo sapiens, SK-MES-1, read-out: LOGIC50(W)
[3] = test system: LOVO cells; assay: Cancer cell screen (NCI protocol), LOVO; details: Homo sapiens, read-out: LOGIC50(W)
[4] = test system: SNB-75 cells; assay: Cancer cell screen (NCI protocol), SNB-75; details: Homo sapiens, SNB-75, read-out: LOGIC50(W)
[5] = test system: SK-MEL5 cells; assay: Cancer cell screen (NCI protocol), SK-MEL5; details: Homo sapiens, SK-MEL-5, read-out: LOGIC50(W)
[6] = test system: OVCAR-4 cells; assay: Cancer cell screen (NCI protocol), OVCAR-4; details: Homo sapiens, OVCAR-4, read-out: LOGIC50(W)
[7] = test system: H460 cells; assay: Cancer cell screen (NCI protocol), H460; details: Homo sapiens, NCI-H460, read-out: LOGIC50(W)
[8] = test system: A498 cells; assay: Cancer cell screen (NCI protocol), A498; details: Homo sapiens, A498, read-out: LOGIC50(W)
[9] = test system: MCF-7/A cells; assay: Cancer cell screen (NCI protocol), MCF-7/A; details: MCF7a, read-out: LOGIC50(W)
[10] = test system: standard group of cancer cells; assay: Screen against standard group of cancer cells, whole panel; details: for .DELTA / .RANGE: log IC50, cell panel; for IC50: read-out: .AV.LOG IC50; for relative activity: review of Tables IV-VI
[11] = test system: OVCAR-8 cells; assay: Cancer cell screen (NCI protocol), OVCAR-8; details: Homo sapiens, OVCAR-8, read-out: LOGIC50(W)
[12] = test system: H322 cells; assay: Cancer cell screen (NCI protocol), H322; details: NCI-H322, read-out: LOGIC50(W)
[13] = test system: U-251 cells; assay: Cancer cell screen (NCI protocol), U-251; details: Homo sapiens, U-251, read-out: LOGIC50(W)
[14] = test system: OVCAR-5 cells; assay: Cancer cell screen (NCI protocol), OVCAR-5; details: Homo sapiens, OVCAR-5, read-out: LOGIC50(W)
[15] = test system: P388 cells; assay: Cancer cell screen (NCI protocol), P388; details: Mus musculus, P388, read-out: LOGIC50(W)
[16] = test system: HT29 cells; assay: Cancer cell screen (NCI protocol), HT29; details: Homo sapiens, HT-29, read-out: LOGIC50(W)
[17] = test system: SW620 cells; assay: Cancer cell screen (NCI protocol), SW620; details: Homo sapiens, SW-620, read-out: LOGIC50(W)
[18] = test system: P388/AD cells; assay: Cancer cell screen (NCI protocol), P388/AD; details: Mus musculus, P388, read-out: LOGIC50(W)
[19] = test system: UO-31 cells; assay: Cancer cell screen (NCI protocol), UO-31; details: Homo sapiens, UO-31, read-out: LOGIC50(W)
[20] = test system: A704 cells; assay: Cancer cell screen (NCI protocol), A704; details: Homo sapiens, A704, read-out: LOGIC50(W)
[21] = test system: TE-671 cells; assay: Cancer cell screen (NCI protocol), TE-671; details: Homo sapiens, TE-671, read-out: LOGIC50(W)
[22] = test system: SN-12KI cells; assay: Cancer cell screen (NCI protocol), SN-12KI; details: read-out: LOGIC50(W)
[23] = test system: SNB-19 cells; assay: Cancer cell screen (NCI protocol), SNB-19; details: Homo sapiens, SNB-19, read-out: LOGIC50(W)
[24] = test system: HL-60 cells; assay: Cancer cell screen (NCI protocol), HL-60; details: Homo sapiens, HL-60, read-out: LOGIC50(W)
[25] = test system: EKV-X cells; assay: Cancer cell screen (NCI protocol), EKV-X; details: Homo sapiens, EKVX, read-out: LOGIC50(W)
[26] = test system: H520 cells; assay: Cancer cell screen (NCI protocol), H520; details: Homo sapiens, NCI-H520, read-out: LOGIC50(W)
[27] = test system: MCF-7 cells; assay: Cancer cell screen (NCI protocol), MCF-7; details: Homo sapiens, MCF7, read-out: LOGIC50(W)
[28] = test system: A2780 cells; assay: Cancer cell screen (NCI protocol), A2780; details: Homo sapiens, A2780, read-out: LOGIC50(W)
[29] = test system: MOLT-4 cells; assay: Cancer cell screen (NCI protocol), MOLT-4; details: Homo sapiens, MOLT-4, read-out: LOGIC50(W)
[30] = test system: VERO; assay: Cytotoxicity in Vero host cells; assay type: cell-based; details: for Cytotoxicity Vero: Vero cells, kind of endpoint not given; for toxicity for the host cells: Vero, at concentrations active against HSV-1 and HSV-2
Text: (§1) Substantially pure compounds of Patellazole B and C were screened for activity. These extracts from a marine tunicate (L. patella) were submitted for antiviral testing.

[31] = test system: HSV-2; assay: Antiviral testing, HSV-2; assay type: cell-based, herpes virus HSV-2; details: for HSV-2 (antiviral concentration): Vero host cells, kind of endpoint not given; for activity against herpes virus HSV-2: at concentrations not toxic for host cells (Vero)
Text: as §1

[32] = test system: A549 cells; assay: Cancer cell screen (NCI protocol), A549; details: Homo sapiens, A549, read-out: LOGIC50(W)
[33] = test system: LOX cells; assay: Cancer cell screen (NCI protocol), LOX; details: read-out: LOGIC50(W)
[34] = test system: HSV-1; assay: Antiviral testing, HSV-1; assay type: cell-based, herpes virus HSV-1; details: for HSV-L (antiviral concentration): Vero host cells, kind of endpoint not given; for activity against herpes virus HSV-1: at concentrations not toxic for host cells (Vero)
Text: as §1

[35] = test system: SNB-44 cells; assay: Cancer cell screen (NCI protocol), SNB-44; details: SNB44, read-out: LOGIC50(W)
[36] = test system: A322 cells; assay: Cancer cell screen (NCI protocol), A322; details: read-out: LOGIC50(W)
[37] = Patellazole B versus Patellazole C

In the case of CCC(C)C(=O)OC1(C)CCC(C)CC(O)C(C)C(=O)C(C)/C=C\CC(C)C(O)C(O)C(OC)/C(C)=C/C=C/C(C)C(C(C)(O)/C=C(/C)Cc2csc(C3(C)OC3C)n2)OC1=O (centres unmarked) [Patellazole A], the “relative activities of the patellazoles” value [1] is reported as “A>B>C”, the IC50 [2] is reported as under 0.0316 ng/mL and the IC50 [3] is reported as 0.0794 ng/mL (≈ 0.0894 nM). For the same molecule, the IC50 [4] was 6.31 ng/mL (≈ 7.1 nM), the IC50 [5] was 0.158 ng/mL (≈ 0.178 nM) and the IC50 [6] was 0.1 ng/mL (≈ 0.113 nM). The IC50 [7] was 0.0398 ng/mL (≈ 0.0448 nM), the IC50 [8] was 0.0631 ng/mL (≈ 0.071 nM) and the IC50 [9] was 0.501 ng/mL (≈ 0.564 nM). The “.DELTA” value [10] was 0.5, the “.RANGE” value [10] was 2.3 and the IC50 [10] was 0.0977 ng/mL (≈ 0.11 nM). The relative activity [10] was “slightly more active than Patellazole B”, the IC50 [11] was 0.1 ng/mL (≈ 0.113 nM) and the IC50 [12] was 0.126 ng/mL (≈ 0.142 nM). It also gave an IC50 [13] of under 0.0316 ng/mL, an IC50 [14] of 0.0501 ng/mL (≈ 0.0564 nM) and an IC50 [15] of 0.1 ng/mL (≈ 0.113 nM). It also gave an IC50 [16] of under 0.0316 ng/mL, an IC50 [17] of 0.1 ng/mL (≈ 0.113 nM) and an IC50 [18] of 0.126 ng/mL (≈ 0.142 nM). The IC50 [19] was 0.126 ng/mL (≈ 0.142 nM), the IC50 [20] was 0.1 ng/mL (≈ 0.113 nM) and the IC50 [21] was under 0.0316 ng/mL. It also gave an IC50 [22] of under 0.0316 ng/mL, an IC50 [23] of 0.0794 ng/mL (≈ 0.0894 nM) and an IC50 [24] of 0.126 ng/mL (≈ 0.142 nM). It also gave an IC50 [25] of 0.0794 ng/mL (≈ 0.0894 nM), an IC50 [26] of 0.794 ng/mL (≈ 0.894 nM) and an IC50 [27] of 0.126 ng/mL (≈ 0.142 nM). For the same molecule, the IC50 [28] was 0.0398 ng/mL (≈ 0.0448 nM) and the IC50 [29] was 0.0794 ng/mL (≈ 0.0894 nM).

For COC1/C(C)=C/C=C/C(C)C(C(C)(O)/C=C(/C)Cc2csc(C3(C)OC3C)n2)OC(=O)C(C)(OC(=O)C(C)C(C)O)CCC(C)CC(O)C(C)C(=O)C(C)/C=C\CC(C)C(O)C1O (centres unmarked) [Patellazole B], the “relative activities of the patellazoles” value [1] was “A>B>C”, the IC50 [2] was under 0.0316 ng/mL and the IC50 [3] was under 0.0316 ng/mL. It also gave an IC50 [4] of under 0.0316 ng/mL, an IC50 [5] of under 0.0316 ng/mL and an IC50 [6] of under 0.0316 ng/mL. For the same molecule, the IC50 [7] was under 0.0316 ng/mL, the IC50 [8] was under 0.0316 ng/mL and the “Cytotoxicity Vero” value [30] was 0.75 µg/mL. For the same molecule, the “toxicity for the host cells” value [30] was “not toxic”, the IC50 [9] was under 0.0316 ng/mL and the “.DELTA” value [10] was 0. The “.RANGE” value [10] was 0, the IC50 [10] was 0.0316 ng/mL (≈ 0.035 nM) and the relative activity [10] was “significantly more active than Patellazole C”. The IC50 [12] was under 0.0316 ng/mL, the IC50 [13] was under 0.0316 ng/mL and the IC50 [14] was under 0.0316 ng/mL. For the same molecule, the IC50 [15] was under 0.0316 ng/mL, the IC50 [16] was under 0.0316 ng/mL and the IC50 [17] was under 0.0316 ng/mL. For the same molecule, the IC50 [18] was under 0.0316 ng/mL, the IC50 [19] was under 0.0316 ng/mL and the IC50 [20] was under 0.0316 ng/mL. For the same molecule, the “relative antiviral activity against HSV-2” value [31, 37] was “significantly more potent”, the “HSV-2 (antiviral concentration)” value [31] was 0.06 µg/mL and the “activity against herpes virus HSV-2” value [31] was “showed activity”. The IC50 [21] was under 0.0316 ng/mL, the IC50 [32] was under 0.0316 ng/mL and the IC50 [22] was under 0.0316 ng/mL. For the same molecule, the IC50 [23] was under 0.0316 ng/mL, the IC50 [33] was under 0.0316 ng/mL and the IC50 [25] was under 0.0316 ng/mL. For the same molecule, the “relative antiviral activity against HSV-1” value [34, 37] was “significantly more potent”, the “HSV-L (antiviral concentration)” value [34] was 0.0005 µg/mL and the “activity against herpes virus HSV-1” value [34] was “showed activity”. The IC50 [35] was under 0.0316 ng/mL, the IC50 [27] was under 0.0316 ng/mL and the IC50 [28] was under 0.0316 ng/mL. It also gave an IC50 [29] of under 0.0316 ng/mL.

For COC1/C(C)=C/C=C/C(C)C(C(C)(O)/C=C(/C)Cc2csc(C3(C)OC3C)n2)OC(=O)C(C)(OC(=O)C(C)C(C)O)CCC(C)CC(O)C(C)C(=O)C(CO)/C=C\CC(C)C(O)C1O (centres unmarked) [Patellazole C], the “relative activities of the patellazoles” value [1] was “generally less active”, the “relative activities of the patellazoles” value ([1]; listed as C) was “A>B>C” and the IC50 [2] was 7.94 ng/mL (≈ 8.63 nM). It also gave an IC50 [3] of 6.31 ng/mL (≈ 6.86 nM), an IC50 [4] of over 31.6 ng/mL and an IC50 [5] of 12.6 ng/mL (≈ 13.7 nM). It also gave an IC50 [6] of 7.94 ng/mL (≈ 8.63 nM), an IC50 [7] of 7.94 ng/mL (≈ 8.63 nM) and an IC50 [8] of 10 ng/mL (≈ 10.9 nM). The “Cytotoxicity Vero” value [30] was 4.0 µg/mL, the “toxicity for the host cells” value [30] was “not toxic” and the IC50 [36] was 7.94 ng/mL (≈ 8.63 nM). The IC50 [9] was over 316 ng/mL, the “.DELTA” value [10] was 1.1 and the “.RANGE” value [10] was 2.5. For the same molecule, the IC50 [10] was 10.2 ng/mL (≈ 11.1 nM), the IC50 [11] was 10 ng/mL (≈ 10.9 nM) and the IC50 [13] was 7.94 ng/mL (≈ 8.63 nM). For the same molecule, the IC50 [14] was 2.51 ng/mL (≈ 2.73 nM), the IC50 [15] was 12.6 ng/mL (≈ 13.7 nM) and the IC50 [16] was 1 ng/mL (≈ 1.09 nM). The IC50 [20] was 79.4 ng/mL (≈ 86.3 nM), the “HSV-2 (antiviral concentration)” value [31] was 0.80 µg/mL and the “activity against herpes virus HSV-2” value [31] was “showed activity”. It also gave an IC50 [21] of 7.94 ng/mL (≈ 8.63 nM), an IC50 [22] of 10 ng/mL (≈ 10.9 nM) and an IC50 [23] of 10 ng/mL (≈ 10.9 nM). The IC50 [25] was 10 ng/mL (≈ 10.9 nM), the “HSV-L (antiviral concentration)” value [34] was 0.30 µg/mL and the “activity against herpes virus HSV-1” value [34] was “showed activity”. For the same molecule, the IC50 [28] was 5.01 ng/mL (≈ 5.45 nM) and the IC50 [29] was 7.94 ng/mL (≈ 8.63 nM).
